Experimental data as given in article PMC12690573, “Playing with Structural Parameters in the Design of Ruthenium(II)–p‑Cymene Complexes as Potential Antibacterial Agents” (Inorganic Chemistry, 2025).
Converted amounts (≈) assume the structure as drawn. Like-named read-outs stand apart in the source and are kept apart here.

Assays:
[1] = Water–octanol partition coefficient, shake-flask method (Log P pH7.4); format: physicochemical; details: PBS pH 7.4 / n-octanol, 16 μM
Description: The study was performed by using the shake-flask method, obtaining the water–octanol partition coefficients of complexes in PBS buffer at pH = 7.4 (Log P pH7.4), as listed in Table .
The octanol–water distribution coefficients were determined at pH 7.4 using the shake-flask method. , Briefly, solutions of the tested compounds (16 μM) in phosphate buffer (pH 7.4) were mixed with n-octanol in flasks at three different PBS:n-octanol ratios (1:1, 0.5:1, 2:1). The mixtures were manually shaken to allow equilibration between the organic and aqueous phases. Subsequently, phase separation was achieved by centrifugation at 4000 rpm for 10 min. The concentrations of ruthenium compounds in both phases were then determined spectrophotometrically. The log P 7.4 values were calculated as the mean value of the log[Ru-pCy1–5]-oct/[Ru-pCy1–5]PBS/4 values obtained from the three different PBS:n-octanol ratio samples for each complex.

[2] = pKa of coordinated water ligand, potentiometric; format: physicochemical; details: H2O/EtOH 4:1 v/v, NaClO4 0.1 M, 298 K, 1 mM
Description: (§1) The acid–base behavior of the coordinated water ligand to the metal scaffold was also considered. To this aim, the UV–vis spectra of batchwise aqueous solutions of the lead compound Ru-pCy1 at different pH at 298 K were registered, and the changes in the MLCT region were monitored. […] A slightly higher value (8.82 ± 0.08) was instead determined potentiometrically under mixed solvent conditions (H2O/EtOH 4:1 v/v, NaClO4 0.1 M, 298 K, ligand concentration 1 mM), required to ensure the full solubilization of the complex.

[3] = pKa of coordinated water ligand by UV–vis pH titration; format: physicochemical; details: absorbance at 435 nm, Henderson–Hasselbalch fit, 298 K
Description: Lastly, the tendency of the coordinated water ligand to undergo deprotonation was also considered. This has been investigated for the lead compound Ru-pCy1, by recording the UV–vis spectra of batchwise aqueous solutions of the complex at different pH values and monitoring the changes in the MLCT region (Figure S29).
as §1

[4] = Aquation (Ru–Cl hydrolysis) followed by UV–vis in aqueous solution; format: physicochemical; details: neutral pH, 298 K; for k water (aquation rate constant) / t 1/2 (aquation half-life): 10 μM, pseudo-first-order model
Description: In view of the well-known lability of the Ru(II)–Cl bond in RACs and considering its relevance for their biological mechanism of action, the aquation process of all systems was investigated. This was performed according to literature methods spectrophotometrically, by registering the UV–vis spectra of freshly prepared aqueous solutions of complexes at neutral pH over different times, up to 12 h, at 298 K. Results for Ru-pCy1 are shown in Figure , while those for the other complexes are reported in Figures S27–S28 Supporting Information. […] The temporal evolution to the aquo-species is also further supported by comparison of spectra collected at increasing time frames and the absorption profile of the aquo species, registered by adding AgNO3 to the metal complex (Figure b). A similar behavior was also observed for the other compounds, confirming their capability to readily lose the chloride ligand. […] Hydrolysis was not observed during the stability experiments (Figure S26), likely being suppressed by the high NaCl concentration in the PBS buffer media (140 mM).
The aquation rate constants (k water) and the corresponding half-lives (t 1/2) were determined by the time-dependent absorbance changes at the MLCT maxima according to a pseudo-first-order kinetic model. The resulting values, reported in Table , range between 2.48 and 5.4 × 10^–4 s^–1.

[5] = test system: B. cenocepacia K56-2; assay: Antibacterial susceptibility, broth microdilution (OD600); format: cell-based, Burkholderia cenocepacia; details: B. cenocepacia K56-2, MHB, 48 h
Description: (§2) The antibacterial properties of Ru-pCy1–5 were investigated against Burkholderia cenocepacia strains J2315 and K56-2, two well-characterized clinical isolates of this Gram-negative pathogen, as well as against Bacillus subtilis 168, which was used as a model for a Gram-positive bacterial strain.
(§3) The obtained results are presented as normalized OD600 values, reporting the ratio of bacterial growth relative to that of the control (untreated) cells. These are plotted in Figure as a function of the compound concentrations (μg/mL), providing a quantitative assessment of the dose-dependent effects on bacterial growth of the tested ruthenium complexes.
(§4) Antimicrobial susceptibility was assessed in the following strains: B. cenocepacia K56-2 and J2315 and B. subtilis 168. For each bacterial strain, three independent biological replicates were prepared by inoculating Mueller–Hinton Broth (MHB) into sterile culture tubes, followed by overnight incubation at 37 °C with shaking at 130 rpm. Cultures were diluted to a final OD600 of 0.05 per well in 96-well microplates (Sarstedt AG & Co.) and exposed to 10 serial 2-fold dilutions of the compounds, ranging from 256 μg/mL to 0.5 μg/mL. Each biological replicate included three technical replicates. Growth inhibition was assessed visually and quantified by measuring OD600 after 24 h for B. subtilis 168 and after 48 h for B. cenocepacia strains K56-2 and J2315 using a Tecan Infinite 200 PRO plate reader.

[6] = test system: B. cenocepacia J2315; assay: as above; format: cell-based, Burkholderia cenocepacia; details: for MIC: B. cenocepacia J2315, MHB, 48 h
Description: as §2, §3, §4

[7] = molecular target: T1, Bovine Pancreatic Ribonuclease A (Bos taurus, UniProt P61823); assay: ESI-MS protein interaction study with RNase A; format: binding; details: 1:3 protein to ruthenium ratio, 24 h, 37 °C
T1 construct: Bovine Pancreatic Ribonuclease A (Merck); purchased Merck
T1 sequence (P61823 27-150): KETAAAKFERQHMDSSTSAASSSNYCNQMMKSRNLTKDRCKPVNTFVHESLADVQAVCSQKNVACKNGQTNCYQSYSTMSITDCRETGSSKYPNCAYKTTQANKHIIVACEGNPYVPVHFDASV
Description: (§5) Accordingly, ESI-MS spectra of RNase A, SOD, and CytC incubated for 24 h with a 3-fold molar excess of each of the five different ruthenium complexes were recorded. […] This could be exacerbated by the steric hindrance of L3.
(§6) Sample preparation: stock solutions of Bovine Superoxide Dismutase SOD) (Merck), Bovine Pancreatic Ribonuclease A (Merck), and Horse Heart Cytochrome c (Merck) 10^–3 M were prepared by dissolving the lyophilized protein in LC–MS-grade water. Stock solutions 10^–2 M RACs were prepared by dissolving the samples in acetonitrile. For the experiments, an aliquot of the stock solutions of the selected protein was mixed with aliquots of each ruthenium compounds at protein-to-metal ratio 1:3 and diluted with LC–MS-grade water to 100 μM final protein concentration. The mixtures were incubated at 37 °C up to 24 h. After the incubation time, the protein solutions were sampled and diluted to a final protein concentration of 500 nM using LC–MS-grade water and adding 0.1% v/v of formic acid just before the infusion in the mass spectrometer.
(§7) Instrumental parameters: the ESI mass spectra were acquired through direct infusion at 7 μL min^–1 flow rate in a TripleTOF 5600+ high-resolution mass spectrometer (Sciex, Framingham, MA, U.S.A.), equipped with a DuoSpray interface operating with an ESI probe.
RNase: positive polarity, Ionspray Voltage Floating 5500 V, Temperature 0, Ion source Gas 1 (GS1) 40 L/min; Ion source Gas 2 (GS2) 0; Curtain Gas (CUR) 15 L/min, Declustering Potential (DP) 100 V, Collision Energy (CE) 10 V, acquisition range 1000–2600 m/z.
(§8) For acquisition, Analyst TF software 1.7.1 (Sciex) was used, and deconvoluted spectra were obtained by using the Bio Tool Kit microapplication v.2.2 embedded in Peak-ViewTM software v.2.2 (Sciex).

[8] = Stability in CH3CN/PBS solution by UV–vis over 72 h; format: physicochemical; details: 1 × 10^–5 M in CH3CN/PBS (CH3CN 1% v/v), room temperature
Description: To gain insights into the suitability of RACs for biological purposes, their stability in aqueous solution was investigated before studying their interactions with representative proteins (SOD, RNase A, and CytC) by ESI-MS analysis (vide infra). Measurements were performed under strictly controlled conditions (temperature, pH, and complex concentration), namely, at a concentration of 1 × 10^–5 M in CH3CN/PBS solution (CH3CN 1% v/v) at room temperature, over a total of 72 h. The resulting time-dependent absorption profiles are reported in Figure S26 (Supporting Information).
Spectrofluorimetric-grade solvents were used for the preparation of all solutions. The PBS solution (pH 7.4, KCl 2.7 mM, NaCl 140 mM, phosphate 10 mM) was prepared according to the standard procedure. RACs were dissolved in CH3CN and then diluted to reach a final concentration of 1 × 10^–5 M in CH3CN/buffer solution (CH3CN 1% v/v). A PerkinElmer Lambda 900 spectrophotometer was employed to record the UV–Visible absorption spectra using 10 mm path-length quartz cuvettes.

[9] = test system: B. subtilis 168; assay: Antibacterial susceptibility, broth microdilution (OD600); format: cell-based, Bacillus subtilis; details: for MIC: B. subtilis 168, MHB, 24 h; for Concentration inducing approximately 50% inhibition of bacterial growth / Antibacterial activity profile (in words): B. subtilis; for Concentration inducing approximately 50% inhibition of bacterial growth: normalized OD600, 24 h; for Antibacterial activity profile (in words): normalized OD600 vs concentration
Description: as §2, §3, §4

[10] = molecular target: T2, Bovine Superoxide Dismutase (SOD) (Bos taurus, UniProt P00442); assay: ESI-MS protein interaction study with SOD; format: binding; details: 1:3 protein to ruthenium ratio, 24 h, 37 °C
T2 construct: purchased Merck
Description: as §5, §6, §7
SOD: positive polarity, IonSpray Voltage Floating 5500 V, Temperature 0, Ion source Gas 1 (GS1) 40 L/min; Ion source Gas 2 (GS2) 0; Curtain Gas (CUR) 15 L/min, Declustering Potential (DP) 200 V, Collision Energy (CE) 10 V, acquisition range 1500–3500 m/z.
as §8

[11] = molecular target: T3, Horse Heart Cytochrome c (Equus caballus, UniProt P00004); assay: ESI-MS protein interaction study with CytC; format: binding; details: 1:3 protein to ruthenium ratio, 24 h, 37 °C
T3 construct: Horse Heart Cytochrome c (Merck); purchased Merck
Description: as §5, §6
Instrumental parameters: the ESI mass spectra were acquired through direct infusion at 7 μL min^–1 flow rate in a TripleTOF 5600+ high-resolution mass spectrometer (Sciex, Framingham, MA, U.S.A.), equipped with a DuoSpray interface operating with an ESI probe. […]

T2 sequence (P00442 whole entry): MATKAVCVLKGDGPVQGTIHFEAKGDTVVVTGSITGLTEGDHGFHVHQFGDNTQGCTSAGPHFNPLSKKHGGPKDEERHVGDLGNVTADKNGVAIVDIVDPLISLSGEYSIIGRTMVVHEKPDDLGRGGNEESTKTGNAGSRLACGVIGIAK
T3 sequence (P00004 whole entry): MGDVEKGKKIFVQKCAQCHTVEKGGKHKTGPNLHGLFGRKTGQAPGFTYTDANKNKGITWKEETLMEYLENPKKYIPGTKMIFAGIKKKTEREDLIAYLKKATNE

Cc1ccc(C(C)C)cc1.F[P-](F)(F)(F)(F)F.[Cl-].[Ru+2].c1ccc2cc3nc4c5cccnc5c5ncccc5c4nc3cc2c1 [Ru-pCy1]
Log P pH7.4 [1]: 0.80 ± 0.30
pK a of coordinated water ligand [2]: 8.82 ± 0.08
pK a of coordinated water ligand [3]: 8.3 ± 0.1
k water (aquation rate constant) [4]: 2.5 ± 0.1 × 10^–4 s^–1
t 1/2 (aquation half-life) [4]: 46.5 ± 2.0 min
MIC [5]: 256 µg/mL
MIC [6]: 128 µg/mL
Concentration inducing approximately 50% inhibition of bacterial growth ([6]; B. cenocepacia J2315, normalized OD600, 48 h): ~32 µg/mL
Adduct formation with RNase A [7]: form stable adducts
Stability in aqueous solution [8]: moderate tendency to precipitate at the longest time points
MIC [9]: 128 µg/mL
Concentration inducing approximately 50% inhibition of bacterial growth [9]: ~64 µg/mL
Antibacterial activity profile (in words) [9]: notable inhibitory effect
Adduct formation with SOD [10]: form stable adducts

Cc1ccc(C(C)C)cc1.F[P-](F)(F)(F)(F)F.[Cl-].[Ru+2].c1ccc(-c2ccnc3c2ccc2c(-c4ccccc4)ccnc23)cc1 [Ru-pCy2]
Log P pH7.4 [1]: 0.91 ± 0.30
k water (aquation rate constant) [4]: 4.5 ± 0.2 × 10^–4 s^–1
t 1/2 (aquation half-life) [4]: 25.7 ± 1.2 min
MIC [5]: > 256 µg/mL
MIC [6]: 256 µg/mL
Adduct formation with RNase A [7]: form stable adducts
MIC [9]: 256 µg/mL
Concentration inducing approximately 50% inhibition of bacterial growth [9]: ~8 µg/mL
Antibacterial activity profile (in words) [9]: notable inhibitory effect
Adduct formation with SOD [10]: form stable adducts

Cc1ccc(C(C)C)cc1.F[P-](F)(F)(F)(F)F.[Cl-].[Ru+2].c1ccc2nc(-c3ccc4ccccc4n3)ccc2c1 [Ru-pCy3]
Adduct formation with CytC [11]: did not interact
Log P pH7.4 [1]: 0.57 ± 0.19
Ru–Cl hydrolysis (spectral variation over time) ([4]; aqueous solution, up to 12 h): did not show appreciable variations
MIC [5]: > 256 µg/mL
MIC [6]: 256 µg/mL
Adduct formation with RNase A [7]: did not interact
MIC [9]: 256 µg/mL
Antibacterial activity profile (in words) [9]: intermediate antibacterial characteristics
Adduct formation with SOD [10]: did not interact

O=C(N[C@H](CO)[C@H](O)c1ccc([N+](=O)[O-])cc1)C(Cl)Cl [chloramphenicol, reference compound]
MIC ([5]; Burkholderia cenocepacia, K562, read-out: MIC): 64 µg/mL (≈ 198 µM)
MIC ([6]; Burkholderia cenocepacia, read-out: MIC): 32 µg/mL (≈ 99 µM)
MIC ([9]; Bacillus subtilis, read-out: MIC): 16 µg/mL (≈ 49.5 µM)
